*1 amine or outer side, *2 acyl side, *3 side chain or, on linkers, in order; H or OH if unused. Where a SMILES comes first, the peptide text is derived from it. Bridges are numbered along the chain shown (N, C = ends). [ ]: non-standard residue; d: D form. ξ: configuration not given here. X5 = O=C(O)CC[C@H](N[*:1])C(=O)C1C[C@H](O)C[C@H]1C(=O)[*:2]; Trp(1-CH2COOH) = N[C@@H](Cc1cn(CC(=O)O)c2ccccc12)C(=O)O; Phe(3,4,5-F3) = N[C@@H](Cc1cc(F)c(F)c(F)c1)C(=O)O; Phe(4-CN) = N#Cc1ccc(C[C@H](N)C(=O)O)cc1; Phe(4-F) = N[C@@H](Cc1ccc(F)cc1)C(=O)O; d(cisHyp) = O=C(O)[C@H]1C[C@@H](O)CN1; Bta = N[C@@H](Cc1csc2ccccc12)C(=O)O; Hyp = O=C(O)[C@@H]1C[C@@H](O)CN1; NMeF = CN[C@@H](Cc1ccccc1)C(=O)O; X1 = O=C([C@H]1COCCN1[*:1])[*:2]; NMehSer = CN[C@@H](CCO)C(=O)O; NMeNle = CCCC[C@H](NC)C(=O)O; dPip = O=C(O)[C@H]1CCCCN1; hSer = N[C@@H](CCO)C(=O)O; NMeA = CN[C@@H](C)C(=O)O; Orn = NCCC[C@H](N)C(=O)O; Dab = NCC[C@H](N)C(=O)O; Dap = NC[C@H](N)C(=O)O; ξC = NC(CS)C(=O)O
Target: T1, Human PD-L1/PD-1 (Homo sapiens, UniProt Q9NZQ7)
T1 construct: TVMV protease cleavage site (C); made in house; host or cells: HEK293T cells
Experiment: HTRF Human PD-L1/PD-1 binding assay (PD-1-Ig/PD-L1-His)
Details: PD-L1-His 10 nM, PD-1-Ig 20 nM; class symbol; read-out: HTRF Human PD-L1/PD-1 Binding Assay IC50 Range
How it was run: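 Step 1: compound with PD-L1-His (10 nM final), 15 min. Step 2: PD-1-Ig (20 nM final), 15 min. Step 3: Eu-cryptate anti-Ig (1 nM) plus APC anti-His (20 nM), 30 min equilibration. Signal taken as 665 nm/620 nm ratio.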

T1 sequence (Q9NZQ7 with tags, fused parts or gaps): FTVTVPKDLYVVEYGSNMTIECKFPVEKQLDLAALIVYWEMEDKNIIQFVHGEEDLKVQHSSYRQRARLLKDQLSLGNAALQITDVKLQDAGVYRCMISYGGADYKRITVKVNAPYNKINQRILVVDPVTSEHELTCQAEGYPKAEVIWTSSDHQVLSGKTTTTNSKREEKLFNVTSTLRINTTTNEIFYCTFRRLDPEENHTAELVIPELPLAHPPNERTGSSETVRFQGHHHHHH

| Structure (SMILES) | IC50 |
| --- | --- |
| CCCC[C@H]1C(=O)N(C)[C@@H](CCCC)C(=O)N[C@@H](CCC(=O)O)C(=O)N[C@H](C(=O)NCC(N)=O)CSCC(=O)N[C@@H](Cc2ccc(O)cc2)C(=O)N(C)[C@@H](C)C(=O)N[C@@H](CC(N)=O)C(=O)N2CCC[C@H]2C(=O)N[C@@H](CN)C(=O)N[C@@H](CCC(N)=O)C(=O)N2C[C@H](O)C[C@H]2C(=O)N[C@@H](Cc2c[nH]c3ccccc23)C(=O)N[C@@H](CCN)C(=O)N[C@@H](Cc2c[nH]c3ccccc23)C(=O)N1C [Example 5237] ({CH2CO}-Y[NMeA]NP[Dap]Q[Hyp]W[Dab]W[NMeNle][NMeNle]ECG-NH2; thioether N-14) | 1 to 9.9 nM |
| CCCC[C@H]1C(=O)N(C)[C@@H](CCCC)C(=O)N[C@@H](CCC(=O)O)C(=O)N[C@H](C(=O)NCC(N)=O)CSCC(=O)N[C@@H](Cc2ccc(O)cc2)C(=O)N2CCCC[C@@H]2C(=O)N[C@@H](CC(N)=O)C(=O)N2CCC[C@H]2C(=O)N[C@@H](CN)C(=O)N[C@@H](CCC(=O)O)C(=O)N2C[C@H](O)C[C@H]2C(=O)N[C@@H](Cc2c[nH]c3ccccc23)C(=O)N[C@@H](CO)C(=O)N[C@@H](Cc2cn(CC(=O)O)c3ccccc23)C(=O)N1C [Example 1290] ({CH2CO}-Y[dPip]NP[Dap]E[Hyp]WS[Trp(1-CH2COOH)][NMeNle][NMeNle]ECG-NH2; thioether N-14) | 10 to 99.9 nM |
| CCCC[C@H]1C(=O)N(C)[C@@H](CCCC)C(=O)N[C@@H](CC(C)C)C(=O)N[C@H](C(=O)NCC(N)=O)CSCC(=O)N[C@@H](Cc2ccc(O)cc2)C(=O)N(C)[C@@H](C)C(=O)N[C@@H](CC(N)=O)C(=O)N2CCC[C@H]2C(=O)N[C@@H](CO)C(=O)N[C@@H](CCC(N)=O)C(=O)N2C[C@H](O)C[C@H]2C(=O)N[C@@H](Cc2c[nH]c3ccccc23)C(=O)N[C@@H](CO)C(=O)N[C@@H](Cc2cn(CC(=O)O)c3ccccc23)C(=O)N1C [Example 6216] ({CH2CO}-Y[NMeA]NPSQ[Hyp]WS[Trp(1-CH2COOH)][NMeNle][NMeNle]LCG-NH2; thioether N-14) | 1 to 9.9 nM |
| CCCC[C@H]1C(=O)N(C)[C@@H](CCCC)C(=O)N[C@@H](C)C(=O)N[C@H](C(=O)NCC(N)=O)CSCC(=O)N[C@@H](Cc2ccc(O)cc2)C(=O)N(C)[C@@H](C)C(=O)N[C@@H](CCC(=O)O)C(=O)N2CCC[C@H]2C(=O)N[C@@H](Cc2cnc[nH]2)C(=O)N[C@@H](CCN)C(=O)N2C[C@H](O)C[C@H]2C(=O)N[C@@H](Cc2c[nH]c3ccccc23)C(=O)N[C@@H](CO)C(=O)N[C@@H](Cc2c[nH]c3ccccc23)C(=O)N1C [Example 1248] ({CH2CO}-Y[NMeA]EPH[Dab][Hyp]WSW[NMeNle][NMeNle]ACG-NH2; thioether N-14) | 10 to 99.9 nM |
| CCCC[C@H]1C(=O)N(C)[C@@H](CCCC)C(=O)N[C@@H](CC(C)C)C(=O)N[C@H](C(=O)NCC(N)=O)CSCC(=O)N[C@@H](Cc2ccc(O)cc2)C(=O)N(C)[C@@H](C)C(=O)N[C@@H](CC(=O)O)C(=O)N2CCC[C@H]2C(=O)N[C@@H](Cc2c[nH]cn2)C(=O)N[C@@H](CCCCNC(C)=O)C(=O)N2C[C@H](O)C[C@H]2C(=O)N[C@@H](Cc2c[nH]c3ccccc23)C(=O)N[C@@H](CCCCN)C(=O)N[C@@H](Cc2c[nH]c3ccccc23)C(=O)N1C [Example 5202] ({CH2CO}-Y[NMeA]DPHK(Ac)[Hyp]WKW[NMeNle][NMeNle]LCG-NH2; thioether N-14) | 1 to 9.9 nM |
| CCCC[C@H]1C(=O)N(C)[C@@H](CCCC)C(=O)N[C@@H](CCCNC(=N)N)C(=O)N[C@H](C(=O)NCC(N)=O)CSCC(=O)N[C@@H](Cc2ccc(C#N)cc2)C(=O)N(C)[C@@H](C)C(=O)N[C@@H](CC(N)=O)C(=O)N2CCC[C@H]2C(=O)N[C@@H](Cc2cnc[nH]2)C(=O)N[C@@H](CCC(=O)O)C(=O)C2C[C@H](O)C[C@H]2C(=O)N[C@@H](Cc2c[nH]c3ccccc23)C(=O)N[C@@H](CCN)C(=O)N[C@@H](Cc2c[nH]c3ccccc23)C(=O)N1C (some centres unmarked) [Example 7077] ({CH2CO}-[Phe(4-CN)][NMeA]NPH[X5]W[Dab]W[NMeNle][NMeNle]RCG-NH2; thioether N-13) | 1 to 9.9 nM |

The next lines start with the values.

| IC50 | Structure (SMILES) |
| --- | --- |
| 10 to 99.9 nM | CCCC[C@H]1C(=O)N2C[C@H](O)C[C@@H]2C(=O)N[C@@H](CC(=O)O)C(=O)N[C@@H](C(C)C)C(=O)N(C)[C@@H](Cc2ccccc2)C(=O)N[C@@H](Cc2ccc(O)cc2)C(=O)N2C[C@H](O)C[C@@H]2C(=O)N[C@@H](Cc2c[nH]c3ccccc23)C(=O)N[C@@H](Cc2ccc(O)cc2)C(=O)N[C@@H](CC(C)C)C(=O)N[C@H](C(=O)NCC(N)=O)CSCC(=O)N[C@@H](Cc2cc(F)c(F)c(F)c2)C(=O)N(C)[C@@H](Cc2ccccc2)C(=O)N1C [Example 9367] ({CH2CO}-[Phe(3,4,5-F3)][NMeF][NMeNle][d(cisHyp)]DV[NMeF]Y[d(cisHyp)]WYLCG-NH2; thioether N-13) |
| 1 to 9.9 nM | CCCC[C@H]1C(=O)N2C[C@H](O)C[C@@H]2C(=O)N[C@@H](CC(=O)O)C(=O)N[C@@H](C(C)C)C(=O)N(C)[C@@H](Cc2ccccc2)C(=O)N[C@@H](CCCN)C(=O)N2CCOC[C@@H]2C(=O)N[C@@H](Cc2c[nH]c3ccccc23)C(=O)N[C@@H](Cc2ccc(O)cc2)C(=O)N[C@@H](CCOC)C(=O)N[C@H](C(=O)NCC(N)=O)CSCC(=O)N[C@@H](Cc2cc(F)c(F)c(F)c2)C(=O)N(C)[C@@H](Cc2ccccc2)C(=O)N1C [Example 10162] ({CH2CO}-[Phe(3,4,5-F3)][NMeF][NMeNle][d(cisHyp)]DV[NMeF][Orn][X1]WY[hSer](Me)CG-NH2; thioether N-13) |
| 1 to 9.9 nM | CCCC[C@H]1C(=O)N(C)[C@@H](CCCC)C(=O)N[C@@H](CCCNC(=N)N)C(=O)NC(C(=O)NCC(N)=O)CSCC(=O)N[C@@H](Cc2ccc(O)cc2)C(=O)N(C)[C@@H](C)C(=O)N[C@@H](CC(N)=O)C(=O)N2CCC[C@H]2C(=O)N[C@@H](CO)C(=O)N[C@@H](CCO)C(=O)N2CCC[C@H]2C(=O)N[C@@H](Cc2c[nH]c3ccccc23)C(=O)N[C@@H](CCO)C(=O)N[C@@H](Cc2c[nH]c3ccccc23)C(=O)N1C (some centres unmarked) [Example 10051] ({CH2CO}-Y[NMeA]NPS[hSer]PW[hSer]W[NMeNle][NMeNle]R[ξC]G-NH2; thioether N-14) |
| 1 to 9.9 nM | CCCC[C@H]1C(=O)N(C)[C@@H](CCCC)C(=O)N[C@@H](C)C(=O)NC(C(=O)NCC(N)=O)CSCC(=O)N[C@@H](Cc2ccc(O)cc2)C(=O)N(C)[C@@H](C)C(=O)N[C@@H](CC(N)=O)C(=O)N2CCC[C@H]2C(=O)N[C@@H](CC(N)=O)C(=O)N[C@@H](CC(C)C)C(=O)N2CCC[C@H]2C(=O)N[C@@H](Cc2c[nH]c3ccccc23)C(=O)N[C@@H](CO)C(=O)N[C@@H](Cc2csc3ccccc23)C(=O)N1C (some centres unmarked) [Example 9133] ({CH2CO}-Y[NMeA]NPNLPWS[Bta][NMeNle][NMeNle]A[ξC]G-NH2; thioether N-14) |
| 100 to 990 nM | CCCC[C@H]1C(=O)N2CCC[C@@H]2C(=O)N[C@@H](CC(=O)O)C(=O)N[C@@H](C(C)C)C(=O)N(C)[C@@H](CCOC)C(=O)N[C@@H](Cc2ccc(O)cc2)C(=O)N2CCC[C@@H]2C(=O)N[C@@H](Cc2c[nH]c3ccccc23)C(=O)N[C@@H](Cc2ccc(O)cc2)C(=O)N[C@@H](CCCN)C(=O)N[C@H](C(=O)NCC(N)=O)CSCC(=O)N[C@@H](Cc2ccc(F)cc2)C(=O)N(C)[C@@H](Cc2ccccc2)C(=O)N1C [Example 9221] ({CH2CO}-[Phe(4-F)][NMeF][NMeNle][dP]DV[NMehSer](Me)Y[dP]WY[Orn]CG-NH2; thioether N-13) |

Reference: patent publication US10538555B2, “Macrocyclic inhibitors of the PD-1/PD-L1 and CD80(B7-1)/PD-L1 protein/protein interactions” (BRISTOL-MYERS SQUIBB COMPANY, priority 2014, dated 2020)
